Data taken from patent US20220313698A1, “MODULATORS OF CYSTIC FIBROSIS TRANSMEMBRANE CONDUCTANCE REGULATOR” (Vertex Pharmaceuticals Incorporated, priority 2019, published 2022).

Molecular target: CFTR-mediated chloride transport (Homo sapiens, UniProt P13569)
Assay: Corrector Assay A - membrane potential dye assay (enteroid cells)
Settings: for Corrector Assay A % activity: % of chloride transport of triple combination control (1 μM (14S)-dispiro macrocycle + 3 μM tezacaftor + 300 nM ivacaftor); for EC50: read-out: Corrector Assay A EC50, human intestinal enteroid cells, 18-24 h incubation, acute 10 μM forskolin + 300 nM ivacaftor

| SMILES | Corrector Assay A % activity | EC50 [µM] |
| --- | --- | --- |
| CC(C)(C)c1ccc2c(n1)N1C[C@@H](CC[C@@H](c3cc(C4=CCOCC4)ccn3)Nc3cccc(n3)S(=O)(=O)NC2=O)CC1(C)C (single isomer, unassigned) [Compound 126] | +++ (+++ is >60%) | < 1 |
| CC(C)(C)c1ccc2c(n1)N1C[C@@H](CCC(c3cc(Cl)ccn3)Nc3cccc(n3)S(=O)(=O)NC2=O)CC1(C)C (single isomer, unassigned) [Compound 127] | +++ (+++ is >60%) | < 1 |
| CC(C)(C)c1ccc2c(n1)N1C[C@@H](CCC(c3cc(Cl)ccn3)Nc3cccc(n3)S(=O)(=O)NC2=O)CC1(C)C (single isomer, unassigned) [Compound 128] | +++ (+++ is >60%) | < 1 |
| CC(C)(C)c1ccc2c(n1)N1C[C@@H](CCC(c3cc(C#N)ccn3)Nc3cccc(n3)S(=O)(=O)NC2=O)CC1(C)C (single isomer, unassigned) [Compound 143] | ++ (++ is 30-60%) | < 1 |
| CC(C)(C)c1ccc2c(n1)N1C[C@@H](CCC(c3cc(C#N)ccn3)Nc3cccc(n3)S(=O)(=O)NC2=O)CC1(C)C (single isomer, unassigned) [Compound 144] | +++ (+++ is >60%) | < 1 |
| CC(C)(C)c1ccc2c(n1)N1C[C@@H](CCC(c3ccc(CCC#N)cn3)Nc3cccc(n3)S(=O)(=O)NC2=O)CC1(C)C (single isomer, unassigned) [Compound 145] | ++ (++ is 30-60%) | < 1 |
| CC(C)(C)c1ccc2c(n1)N1C[C@@H](CCC(c3ccc(C4CCOCC4)cn3)Nc3cccc(n3)S(=O)(=O)NC2=O)CC1(C)C (single isomer, unassigned) [Compound 155] | +++ (+++ is >60%) | < 1 |
| CC(C)(C)c1ccc2c(n1)N1C[C@@H](CCC(c3ccc(Br)cn3)Nc3cccc(n3)S(=O)(=O)NC2=O)CC1(C)C (single isomer, unassigned) [Compound 171] | ++ (++ is 30-60%) | < 1 |
| CC(C)(C)c1ccc2c(n1)N1C[C@@H](CCC(c3ccc(Br)cn3)Nc3cccc(n3)S(=O)(=O)NC2=O)CC1(C)C (single isomer, unassigned) [Compound 172] | +++ (+++ is >60%) | < 1 |
| CC(C)(C)c1cccc(C2CC[C@@H]3CN(c4nc(C(C)(C)C)ccc4C(=O)NS(=O)(=O)c4cccc(n4)N2)C(C)(C)C3)n1 (single isomer, unassigned) [Compound 178] | + (+ is <30%) | < 1 |
| CC(C)(C)c1cccc(C2CC[C@@H]3CN(c4nc(C(C)(C)C)ccc4C(=O)NS(=O)(=O)c4cccc(n4)N2)C(C)(C)C3)n1 (single isomer, unassigned) [Compound 179] | ++ (++ is 30-60%) | < 1 |
| CC(C)(C)c1ccc(C2CC[C@@H]3CN(c4nc(C(C)(C)C)ccc4C(=O)NS(=O)(=O)c4cccc(n4)N2)C(C)(C)C3)nc1 (single isomer, unassigned) [Compound 186] | +++ (+++ is >60%) | < 1 |
| CC(C)(C)c1ccc(C2CC[C@@H]3CN(c4nc(C(C)(C)C)ccc4C(=O)NS(=O)(=O)c4cccc(n4)N2)C(C)(C)C3)nc1 (single isomer, unassigned) [Compound 187] | ++ (++ is 30-60%) | < 1 |
| CC(C)(C)c1ccc2c(n1)N1C[C@@H](CCC(c3ccc(CN)cn3)Nc3cccc(n3)S(=O)(=O)NC2=O)CC1(C)C (single isomer, unassigned) [Compound 197] | ++ (++ is 30-60%) | < 1 |
| CC(C)(C)c1ccc2c(n1)N1C[C@@H](CCC(c3ccc(C#N)cn3)Nc3cccc(n3)S(=O)(=O)NC2=O)CC1(C)C (single isomer, unassigned) [Compound 205] | +++ (+++ is >60%) | < 1 |
| CC(C)(C)c1ccc2c(n1)N1C[C@@H](CC[C@@H](c3ncccn3)Nc3cccc(n3)S(=O)(=O)NC2=O)CC1(C)C (single isomer, unassigned) [Compound 206] | +++ (+++ is >60%) | 1 to 3 |
| CC(C)(C)c1ccc2c(n1)N1C[C@@H](CC[C@@H](c3ncccn3)Nc3cccc(n3)S(=O)(=O)NC2=O)CC1(C)C (single isomer, unassigned) [Compound 207] | +++ (+++ is >60%) | < 1 |
| CC(C)(C)c1ccc2c(n1)N1C[C@@H](CCC(c3ccc(Cl)cn3)Nc3cccc(n3)S(=O)(=O)NC2=O)CC1(C)C (single isomer, unassigned) [Compound 208] | +++ (+++ is >60%) | < 1 |
| CC(C)(C)c1ccc2c(n1)N1C[C@@H](CCC(c3ccc(Cl)cn3)Nc3cccc(n3)S(=O)(=O)NC2=O)CC1(C)C (single isomer, unassigned) [Compound 209] | ++ (++ is 30-60%) | < 1 |

| SMILES | Corrector Assay A % activity | EC50 [µM] |
| --- | --- | --- |
| CC1(C)OCCc2cc3c(nc21)N1C[C@@H](CCC(c2ccccn2)Nc2cccc(n2)S(=O)(=O)NC3=O)CC1(C)C (single isomer, unassigned) [Compound 212] | +++ (+++ is >60%) | < 1 |
| CC1(C)OCCc2cc3c(nc21)N1C[C@@H](CCC(c2ccccn2)Nc2cccc(n2)S(=O)(=O)NC3=O)CC1(C)C (single isomer, unassigned) [Compound 213] | ++ (++ is 30-60%) | 1 to 3 |
| CC(C)(C)c1ccc2c(n1)N1C[C@@H](CC[C@@H](c3ccncn3)Nc3cccc(n3)S(=O)(=O)NC2=O)CC1(C)C (single isomer, unassigned) [Compound 216] | + (+ is <30%) | – |
| CC(C)(C)c1ccc2c(n1)N1C[C@@H](CC[C@@H](c3ccncn3)Nc3cccc(n3)S(=O)(=O)NC2=O)CC1(C)C (single isomer, unassigned) [Compound 217] | ++ (++ is 30-60%) | < 1 |
| CC(C)(C)c1ccc2c(n1)N1C[C@@H](CC[C@@H](C3CCN(c4ncccn4)CC3)Nc3cccc(n3)S(=O)(=O)NC2=O)CC1(C)C (single isomer, unassigned) [Compound 219] | ++ (++ is 30-60%) | < 1 |
| COCCN1CCC2(CC1)CC(NC(=O)C1CC[C@@H]3CN(c4nc(C(C)(C)C)ccc4C(=O)NS(=O)(=O)c4cccc(n4)N1)C(C)(C)C3)C2 (single isomer, unassigned) [Compound 220] | +++ (+++ is >60%) | 1 to 3 |
| CC(C)(C)c1ccc2c(n1)N1C[C@@H](CCC(C(=O)NC3CC4(CCNCC4)C3)Nc3cccc(n3)S(=O)(=O)NC2=O)CC1(C)C (single isomer, unassigned) [Compound 222] | ++ (++ is 30-60%) | > 3 |
| COC(=O)C1CC[C@@H]2CN(c3nc(C(C)(C)C)ccc3C(=O)NS(=O)(=O)c3cccc(n3)N1)C(C)(C)C2 (single isomer, unassigned) [Compound 224] | +++ (+++ is >60%) | < 1 |
| COC(=O)C1CC[C@@H]2CN(c3nc(C(C)(C)C)ccc3C(=O)NS(=O)(=O)c3cccc(n3)N1)C(C)(C)C2 (single isomer, unassigned) [Compound 225] | ++ (++ is 30-60%) | < 1 |
| CC(C)(C)OC(=O)N1CCC2(CC1)CC(NC(=O)C1CC[C@@H]3CN(c4nc(C(C)(C)C)ccc4C(=O)NS(=O)(=O)c4cccc(n4)N1)C(C)(C)C3)C2 (single isomer, unassigned) [Compound 226] | +++ (+++ is >60%) | < 1 |
| CC(=O)N1CCC([C@@H]2CC[C@@H]3CN(c4nc(C(C)(C)C)ccc4C(=O)NS(=O)(=O)c4cccc(n4)N2)C(C)(C)C3)CC1 (single isomer, unassigned) [Compound 229] | ++ (++ is 30-60%) | < 1 |
| CC(C)(C)c1ccc2c(n1)N1C[C@@H](CCC(C(=O)O)Nc3cccc(n3)S(=O)(=O)NC2=O)CC1(C)C (single isomer, unassigned) [Compound 230] | +++ (+++ is >60%) | > 3 |
| CC(C)(C)c1ccc2c(n1)N1C[C@@H](CCC(C(=O)O)Nc3cccc(n3)S(=O)(=O)NC2=O)CC1(C)C (single isomer, unassigned) [Compound 231] | + (+ is <30%) | > 3 |
| CC(C)(C)c1ccc2c(n1)N1C[C@@H](CCC(c3ccncc3)Nc3cccc(n3)S(=O)(=O)NC2=O)CC1(C)C (single isomer, unassigned) [Compound 232] | +++ (+++ is >60%) | < 1 |
| CC(C)(C)c1ccc2c(n1)N1C[C@@H](CCC(c3ccncc3)Nc3cccc(n3)S(=O)(=O)NC2=O)CC1(C)C (single isomer, unassigned) [Compound 233] | ++ (++ is 30-60%) | < 1 |
| CC(C)(C)c1ccc2c(n1)N1C[C@@H](CC[C@@H](C3CCCCC3)Nc3cccc(n3)S(=O)(=O)NC2=O)CC1(C)C (single isomer, unassigned) [Compound 234] | ++ (++ is 30-60%) | < 1 |
| CC(C)(C)c1ccc2c(n1)N1C[C@@H](CC[C@@H](C3CCCCC3)Nc3cccc(n3)S(=O)(=O)NC2=O)CC1(C)C (single isomer, unassigned) [Compound 235] | ++ (++ is 30-60%) | < 1 |
| CN(C)CC(=O)N1CCC([C@@H]2CC[C@@H]3CN(c4nc(C(C)(C)C)ccc4C(=O)NS(=O)(=O)c4cccc(n4)N2)C(C)(C)C3)CC1 (single isomer, unassigned) [Compound 237] | ++ (++ is 30-60%) | 1 to 3 |
| CC(C)(C)c1ccc2c(n1)N1C[C@@H](CC[C@@H](C3CCN(CCC(F)(F)F)CC3)Nc3cccc(n3)S(=O)(=O)NC2=O)CC1(C)C (single isomer, unassigned) [Compound 239] | + (+ is <30%) | > 3 |
